# Reference: patent US20210330611A1, “THERAPY FOR NEUROLOGICAL DISEASES/DISORDERS” (priority 2020, published 2021)
# Where a name gives a salt, the structure may show the parent alone. Read-outs that look alike come from different tables or passages of the source.
# Assays:
# [1] = test system: fibrin-induced microglia activation; test: Image-based assay of fibrin-induced microglia activation (HTS and dose response); format: cell-based, rat; details: for inhibition at 10 µM: Rattus norvegicus, Microglia, read-out: Fibrin % inhibition
# [2] = test system: LPS-induced microglia activation; test: Image-based assay of LPS-induced microglia activation (HTS and dose response); format: cell-based, rat; details: for inhibition at 10 µM: Rattus norvegicus, Microglia, read-out: LPS % inhibition
# [3] = test system: fibrin- and LPS-induced microglia activation; test: cells; format: cell-based, rat
# [4] = test system: primary rat microglia;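 on Fibrin % cell toxicity: share of dead cells sized under 150 µm2 at 10 µM in fibrin-stimulated microglia HTS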
# [5] = test system: primary rat microglia; remark: listed apart in the source;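 on Fibrin % cell toxicity: share of dead cells sized under 150 µm2 at 10 µM in fibrin-stimulated microglia HTS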
# [6] = primary HTS, 10 μM, fibrin-stimulated primary microglia
# [7] = primary HTS, 10 μM, LPS-stimulated primary microglia
# [8] = primary microglia HTS, fibrin stimulation, increased cell size (>800 μm^2) as marker of activation
# [9] = 48 h, primary microglia HTS, LPS stimulation, increased cell size (>800 μm^2) as marker of activation
# [10] = quadrant by fibrin and LPS inhibition in HTS of 1907 compounds
# [11] = primary microglia HTS, fibrin stimulation, activation = cell size >800 μm2
# [12] = 48 h, primary microglia HTS, LPS stimulation, activation = cell size >800 μm2
# [13] = primary microglia HTS, fibrin stimulation, compounds at 10 μM
# [14] = primary microglia HTS, LPS stimulation, compounds at 10 μM
# [15] = classification by fibrin and LPS inhibition, HTS at 10 μM
# [16] = primary microglia HTS, 10 μM, fibrin-stimulated, cell size >800 μm^2 as marker of activation
# [17] = primary microglia HTS, 10 μM, LPS-stimulated, cell size >800 μm^2 as marker of activation
# [18] = HTS of 1907 compounds, quadrant by fibrin and LPS inhibition
smiles,measurement,setting,value
CN[C@H](CC(C)C)C(=O)N[C@H]1C(=O)N[C@@H](CC(N)=O)C(=O)N[C@H]2C(=O)N[C@H]3C(=O)N[C@H](C(=O)N[C@H](C(=O)O)c4cc(O)cc(O)c4-c4cc3ccc4O)[C@H](O)c3ccc(c(Cl)c3)Oc3cc2cc(c3O[C@@H]2O[C@H](CO)[C@@H](O)[C@H](O)[C@H]2O[C@H]2C[C@](C)(N)[C@H](O)[C@H](C)O2)Oc2ccc(cc2Cl)[C@H]1O [Vancomycin],Fibrin % inhibition,[1]; 10 µM,−1%
same,LPS % inhibition,[2]; 10 µM,−2%
same,Quadrant (FIG. 5b),[3],Q4
same,Fibrin % cell toxicity,[4]; rat,1%
same,LPS % cell toxicity,[5]; rat,0%
COc1ccc2cc3[n+](cc2c1OC)CCc1cc2c(cc1-3)OCO2 [Berberine],inhibition at 10 µM,[1]; [6],-62%
same,inhibition at 10 µM,[2]; [7],4%
same,Quadrant (FIG. 5b),"[3]; primary HTS, 10 μM",Q4
same,Fibrin % cell toxicity,[4]; rat,0%
same,LPS % cell toxicity,[5]; rat,0%
CC(=O)OC1CC2CCC1(C)C2(C)C (centres unmarked) [Bornyl Acetate],inhibition at 10 µM,[1]; [6],-38%
same,inhibition at 10 µM,[2]; [7],2%
same,Quadrant (FIG. 5b),"[3]; primary HTS, 10 μM",Q4
same,Fibrin % cell toxicity,[4]; rat,0%
same,LPS % cell toxicity,[5]; rat,0%
O=C1CN=C(c2ccccc2)c2cc([N+](=O)[O-])ccc2N1 [Nitrazepam],inhibition at 10 µM,[1]; [8],-1%
same,inhibition at 10 µM,[2]; [9],-4%
same,Quadrant (FIG. 5b),[3]; [10],Q4
same,Fibrin % cell toxicity,[4]; rat,1%
same,LPS % cell toxicity,[5]; rat,0%
O=CCc1ccc(-c2ccccc2)cc1,Fibrin % inhibition,[1]; 10 µM,−26%
same,LPS % inhibition,[2]; 10 µM,7%
same,Quadrant (FIG. 5b),[3],Q4
same,Fibrin % cell toxicity,[4],0%
same,LPS % cell toxicity,[5],0%
"N[C@@H](CC(=O)O)C(=O)O [L-aspartic Acid, Aspartic Acid (I)]",Fibrin % inhibition,[1]; [11],5%
same,LPS % inhibition,"[2]; primary microglia HTS, LPS stimulation, activation = cell size >800 μm2",13%
same,Quadrant (FIG. 5b),[3]; [10],Q4
same,Fibrin % cell toxicity,[4],1%
same,LPS % cell toxicity,[5],1%
"O=C([O-])C[C@H](O)C[C@H](O)/C=C/c1c(C2CC2)nc2ccccc2c1-c1ccc(F)cc1.O=C([O-])C[C@H](O)C[C@H](O)/C=C/c1c(C2CC2)nc2ccccc2c1-c1ccc(F)cc1.[Ca+2] [Pitavastatin calcium, reference compound]",Fibrin % inhibition,[1],100%
same,Fibrin Selectivity,[1],4
same,Fibrin Selectivity (LOG10),[1],0.61
same,IC50,[1]; read-out: Fibrin IC50,1 µM
same,IC50,[1]; read-out: Fibrin IC50 (uM) (Suppl. Table 7),1 µM
same,LPS % inhibition,[2],66%
same,IC50,[2]; read-out: LPS IC50,5 µM
same,IC50,[2]; read-out: LPS IC50 (uM) (Suppl. Table 7),5 µM
same,Cherry-picked Hit (Suppl. Table 7),[3],HIT (key: HIT: Hits were defined as molecules that exhibited greater than 50% inhibition of either fibrin or LPS activation)
same,Hit,[3],HIT (key: HIT: Hits were defined as molecules that exhibited greater than 50% inhibition of either fibrin or LPS activation)
same,Quadrant (FIG. 5b),[3],Q2
same,Fibrin % cell toxicity,[4],1%
same,IC50,[4],> 20 µM
same,IC50,[5],> 20 µM
same,LPS % cell toxicity,[5],1%
CC[C@H]1OC(=O)[C@H](C)[C@@H](O[C@H]2C[C@@](C)(OC)[C@@H](O)[C@H](C)O2)[C@H](C)[C@@H](O[C@@H]2O[C@H](C)C[C@H](N(C)C)[C@H]2O)[C@](C)(OC)C[C@@H](C)C(=O)[C@H](C)[C@@H](O)[C@]1(C)O [Clarithromycin],inhibition at 10 µM,[1]; [6],-7%
same,inhibition at 10 µM,[2]; [7],18%
same,Quadrant (FIG. 5b),"[3]; primary HTS, 10 μM",Q4
same,Fibrin % cell toxicity,[4]; rat,1%
same,LPS % cell toxicity,[5]; rat,0%
FC(F)(F)C(Cl)Br (centres unmarked) [Halothane],inhibition at 10 µM,[1]; [11],17%
same,inhibition at 10 µM,[2]; [12],17%
same,Quadrant (FIG. 5b),[3]; [10],Q4
same,Fibrin % cell toxicity,[4]; rat,1%
same,LPS % cell toxicity,[5]; rat,0%
C[N+](C)(C)CC(=O)O [Trimethyl Glycine],Fibrin % inhibition,[1]; 10 µM,−14%
same,LPS % inhibition,[2]; 10 µM,22%
same,Quadrant (FIG. 5b),[3],Q4
same,Fibrin % cell toxicity,[4],0%
same,LPS % cell toxicity,[5],0%
CC(C(=O)O)c1ccc2c(c1)[nH]c1ccc(Cl)cc12 (centres unmarked) [Carprofen],inhibition at 10 µM,[1]; [6],-2%
same,inhibition at 10 µM,[2]; [7],15%
same,Quadrant (FIG. 5b),"[3]; primary HTS, 10 μM",Q4
same,Fibrin % cell toxicity,[4]; rat,0%
same,LPS % cell toxicity,[5]; rat,0%
[O-][n+]1ccccc1[S-].[O-][n+]1ccccc1[S-].[Zn+2] [Pyrithione Zinc],Fibrin % inhibition,[1]; 10 µM,109%
same,LPS % inhibition,[2]; 10 µM,127%
same,Quadrant (FIG. 5b),[3],Q2
same,Fibrin % cell toxicity,[4],86%
same,LPS % cell toxicity,[5],87%
CC/C(=C(/CC)c1ccc(O)cc1)c1ccc(O)cc1 [Diethylstilbestrol],inhibition at 10 µM,[1],-26%
same,inhibition at 10 µM,[2],16%
same,Quadrant (FIG. 5b),[3],Q4
same,Fibrin % cell toxicity,[4]; rat,1%
same,LPS % cell toxicity,[5]; rat,0%
O=c1[nH]cnc2c1ncn2[C@H]1CC[C@@H](CO)O1 [Didanosine],inhibition at 10 µM,[1]; [13],-8%
same,inhibition at 10 µM,[2]; [14],-2%
same,Quadrant (FIG. 5b),[3]; [15],Q4
same,Fibrin % cell toxicity,[4]; rat,1%
same,LPS % cell toxicity,[5]; rat,0%
CCn1cc(C(=O)O)c(=O)c2cc3c(cc21)OCO3 [Oxolinic Acid],inhibition at 10 µM,[1]; [8],7%
same,inhibition at 10 µM,[2]; [9],13%
same,Quadrant (FIG. 5b),[3]; [10],Q4
same,Fibrin % cell toxicity,[4]; rat,0%
same,LPS % cell toxicity,[5]; rat,1%
Nc1ccc(S(=O)(=O)Nc2ccccn2)cc1 [Sulfapyridine],inhibition at 10 µM,[1]; [16],-37%
same,inhibition at 10 µM,[2]; [17],20%
same,Quadrant (FIG. 5b),[3]; [18],Q4
same,Fibrin % cell toxicity,[4]; rat,1%
same,LPS % cell toxicity,[5]; rat,0%
CCOc1ccc(NC(=O)CC(C)O)cc1 (centres unmarked) [Bucetin],inhibition at 10 µM,[1]; [6],-25%
same,inhibition at 10 µM,[2]; [7],12%
same,Quadrant (FIG. 5b),"[3]; primary HTS, 10 μM",Q4
same,Fibrin % cell toxicity,[4]; rat,0%
same,LPS % cell toxicity,[5]; rat,0%
NCCS [Cysteamine],inhibition at 10 µM,[1],9%
same,inhibition at 10 µM,[2],12%
same,Quadrant (FIG. 5b),[3],Q4
same,Fibrin % cell toxicity,[4]; rat,0%
same,LPS % cell toxicity,[5]; rat,0%
CC(C)Cc1ccc([C@H](C)C(=O)O)cc1 [Dexibuprofen],inhibition at 10 µM,[1]; [13],-3%
same,inhibition at 10 µM,[2]; [14],13%
same,Quadrant (FIG. 5b),[3]; [15],Q4
same,Fibrin % cell toxicity,[4]; rat,1%
same,LPS % cell toxicity,[5]; rat,0%
CCCCCCCCCCCCCCCC(=O)OC[C@H](O)[C@H]1OC(=O)C(O)=C1O [Ascorbyl Palmitate],inhibition at 10 µM,[1]; [13],38%
same,inhibition at 10 µM,[2]; [14],20%
same,Quadrant (FIG. 5b),"[3]; quadrant by fibrin and LPS inhibition, HTS at 10 μM",Q4
same,Fibrin % cell toxicity,[4]; rat,1%
same,LPS % cell toxicity,[5]; rat,0%
CC1=C(CC(=O)O)c2cc(F)ccc2/C1=C\c1ccc([S+](C)[O-])cc1 (centres unmarked) [Sulindac],inhibition at 10 µM,[1]; [16],21%
same,inhibition at 10 µM,[2]; [17],6%
same,Quadrant (FIG. 5b),[3]; [18],Q4
same,Fibrin % cell toxicity,[4]; rat,1%
same,LPS % cell toxicity,[5]; rat,0%
CCCCNC(=O)NS(=O)(=O)c1ccc(C)cc1 [Tolbutamide],inhibition at 10 µM,[1],31%
same,inhibition at 10 µM,[2],24%
same,Quadrant (FIG. 5b),[3],Q4
same,Fibrin % cell toxicity,[4]; rat,1%
same,LPS % cell toxicity,[5]; rat,0%
O=C(OCC(O)CO)c1ccccc1Nc1ccnc2cc(Cl)ccc12 (centres unmarked) [Glafenine],inhibition at 10 µM,[1]; [11],8%
same,inhibition at 10 µM,[2]; [12],18%
same,Quadrant (FIG. 5b),[3]; [10],Q4
same,Fibrin % cell toxicity,[4]; rat,1%
same,LPS % cell toxicity,[5]; rat,0%
CCOC(=O)[C@H](CCc1ccccc1)N[C@@H](C)C(=O)N1[C@H](C(=O)O)C[C@H]2CCCC[C@@H]21 [Trandolapril],inhibition at 10 µM,[1],-5%
same,inhibition at 10 µM,[2],15%
same,Quadrant (FIG. 5b),[3],Q4
same,Fibrin % cell toxicity,[4]; rat,1%
same,LPS % cell toxicity,[5]; rat,0%
CO/N=C(\C(=O)N[C@@H]1C(=O)N2C(C(=O)O)=C(CSc3nc(=O)c(=O)[nH]n3C)CS[C@H]12)c1csc(N)n1 [Ceftriaxone],inhibition at 10 µM,[1],-16%
same,inhibition at 10 µM,[2],12%
same,Quadrant (FIG. 5b),[3],Q4
same,Fibrin % cell toxicity,[4]; rat,1%
same,LPS % cell toxicity,[5]; rat,0%
O=C1CN(/N=C/c2ccc(-c3ccc([N+](=O)[O-])cc3)o2)C(O)=N1 [Dantrolene],inhibition at 10 µM,[1]; [13],-6%
same,inhibition at 10 µM,[2]; [14],14%
same,Quadrant (FIG. 5b),[3]; [15],Q4
same,Fibrin % cell toxicity,[4]; rat,1%
same,LPS % cell toxicity,[5]; rat,0%
CCCc1cc(=O)[nH]c(=S)[nH]1 [Propylthiouracil],inhibition at 10 µM,[1],-4%
same,inhibition at 10 µM,[2]; 48 h,8%
same,Quadrant (FIG. 5b),[3],Q4
same,Fibrin % cell toxicity,[4]; rat,0%
same,LPS % cell toxicity,[5]; rat,0%
"COc1cccc2c1C(=O)c1c(O)c3c(c(O)c1C2=O)C[C@@](O)(C(=O)CO)C[C@@H]3O[C@H]1C[C@H](N)[C@@H](O)[C@H](C)O1 [Epirubicin, Epirubicin Hydrochloride]",Fibrin % inhibition,[1]; [8],113%
same,LPS % inhibition,"[2]; primary microglia HTS, LPS stimulation, increased cell size (>800 μm^2) as marker of activation",123%
same,Quadrant (FIG. 5b),[3]; [10],Q2
same,Fibrin % cell toxicity,[4],79%
same,LPS % cell toxicity,[5],58%
Clc1ccc(C(c2ccccc2Cl)C(Cl)Cl)cc1 (centres unmarked) [Mitotane],inhibition at 10 µM,[1]; [8],-19%
same,inhibition at 10 µM,[2]; [9],-1%
same,Quadrant (FIG. 5b),[3]; [10],Q4
same,Fibrin % cell toxicity,[4]; rat,0%
same,LPS % cell toxicity,[5]; rat,0%
